In patent US20100298302A1, “NOVEL PROTEIN KINASE MODULATORS” (priority 2009, published 2010):
Read-outs that look alike come from different tables or passages of the source.

How the values were obtained:
MV-4-11 = assay: Alamar Blue cell proliferation assay, MV-4-11; format: cell-based; settings: Homo sapiens, MV4-11; Table 4
Description: (§1) A representative cell-proliferation assay protocol using Alamar Blue dye (stored at 4° C., use 20 ul per well) is described hereafter.
(§2) a. Split and trypsinize cells.
(§3) b. Count cells using hemocytometer.
(§4) c. Plate 4,000-5,000 cells per well in 100 μl of medium and seed into a 96-well plate according to the following plate layout. Add cell culture medium only to wells B10 to B12. Wells B1 to B9 have cells but no compound added.
(§5) d. Add 100 μl of 2× drug dilution to each well in a concentration shown in the plate layout above. At the same time, add 100 μl of media into the control wells (wells B10 to B12). Total volume is 200 μl/well.
(§6) e. Incubate four (4) days at 37° C., 5% CO2 in a humidified incubator.
(§7) f. Add 20 μl Alamar Blue reagent to each well.
(§8) g. Incubate for four (4) hours at 37° C., 5% CO2 in a humidified incubator.
(§9) h. Record fluorescence at an excitation wavelength of 544 nm and emission wavelength of 590 nm using a microplate reader.
(§10) In the assays, cells are cultured with a test compound for approximately four days, the dye is then added to the cells and fluorescence of […] dye is detected after approximately four hours. Different types of cells can be utilized in the assays (e.g., HCT-116 human colorectal carcinoma cells, PC-3 human prostatic cancer cells, MDA-MB231 human breast cancer cells, K-562 human chronic myelogenous leukemia (CML) cells, MiaPaca human pancreatic carcinoma cells, MV-4 human acute myeloid leukemia cells, and BxPC3 human pancreatic adenocarcinoma cells).

[1] = system: K-562 human chronic myelogenous leukemia (CML) cells; assay: Alamar Blue cell proliferation assay, K-562; format: cell-based; settings: K562, Table 4
Description: as §1, §2, §3, §4, §5, §6, §7, §8, §9, §10

recombinant PIM-1 = recombinant PIM-1 (Homo sapiens, UniProt P11309); assay: PIM-1 kinase assay; format: biochemical; settings: for inhibition at 0.5 µM: 500 nM compound, read-out: PIM1: % inh 500 nM
Description: The following procedure was used to assay the PIM-1 kinase activity of compounds of the invention. Other methods for assaying PIM-1 and other PIM kinases, as well as methods to assay for activity against various kinases known in the art.
In a final reaction volume of 50 ul, recombinant PIM-1 (1 ng) was incubated with 12 mM MOPS pH 7.0, 0.4 mM EDTA, glycerol 1%, brij 35 0.002%, 2-mercaptoethanol 0.02%, BSA 0.2 mg/ml, 100 uM KKRNRTLTK, 10 mM MgAcetate, 15 uM ATP, [γ-^33P-ATP] (specific activity approx. 500 cpm/pmol), DMSO 4% and test inhibitor compound at the required concentration. The reaction was initiated by the addition of the Magnesium ATP mixture. After 40 min incubation at 23° C., the reactions were quenched by the addition of 100 ul 0.75% Phosphoric acid, and the labeled peptide collected by filtration through a phosphocellulose filter plate. The plate was washed 4 times with 0.075% phosphoric acid (100 ul per well) and then, after the addition of scintillation fluid (20 ul per well), the counts were measured by a scintillation counter.

[2] = system: MiaPaca human pancreatic carcinoma cells; assay: Alamar Blue cell proliferation assay, MiaPaCa; format: cell-based; settings: MIA PaCa-2
Description: as §1, §2, §3, §4, §5, §6, §7, §8, §9, §10

[3] = system: PC-3 human prostatic cancer cells; assay: Alamar Blue cell proliferation assay, PC3; format: cell-based
Description: as §1, §2, §3, §4, §5, §6, §7, §8, §9, §10

recombinant human CK2 = target: T1, recombinant human CK2 (Homo sapiens, UniProt P68400); assay: cell-free CK2 assay; format: biochemical
T1 construct: purchased Upstate
Description: Modulatory activity of compounds described herein was assessed in vitro in cell-free CK2 assays by the following method.
Test compounds in aqueous solution were added at a volume of 10 microliters, to a reaction mixture comprising 10 microliters Assay Dilution Buffer (ADB; 20 mM MOPS, pH 7.2, 25 mM beta-glycerolphosphate, 5 mM EGTA, 1 mM sodium orthovanadate and 1 mM dithiothreitol), 10 microliters of substrate peptide (RRRDDDSDDD, dissolved in ADB at a concentration of 1 mM), 10 microliters of recombinant human CK2 (25 ng dissolved in ADB; Upstate). Reactions were initiated by the addition of 10 microliters of ATP Solution (90% 75 mM MgCl2, 75 micromolar ATP dissolved in ADB; 10% [γ-^33P]ATP (stock 1 mCi/100 μl; 3000 Ci/mmol (Perkin Elmer) and maintained for 10 minutes at 30 degrees C. The reactions were quenched with 100 microliters of 0.75% phosphoric acid, then transferred to and filtered through a phosphocellulose filter plate (Millipore). After washing each well 5 times with 0.75% phosphoric acid, the plate was dried under vacuum for 5 min and, following the addition of 15 ul of scintilation fluid to each well, the residual radioactivity was measured using a Wallac luminescence counter.

recombinant human PIM2 = recombinant human PIM2 (Homo sapiens, UniProt Q9P1W9); assay: PIM-2 kinase assay; format: biochemical
Description: Test compounds dissolved and diluted in DMSO (2 μl) were added to a reaction mixture comprising 10 μl of 5× Reaction Buffer (40 mM MOPS pH 7.0, 5 mM EDTA), 10 μl of recombinant human PIM2 solution (4 ng PIM-2 dissolved in dilution buffer (20 mM MOPS pH 7.0; EDTA 1 mM; 5% Glycerol; 0.01% Brij 35; […]; […] 2-mercaptoethanol; 1 mg/ml BSA)) and 8 ul of water. Reactions were initiated by the addition of 10 ul of ATP Solution ([…] (15 mM MgCl2; 75 uM ATP) 1% ([γ-33P]ATP: Stock 1 mCi/100 μl; 3000 Ci/mmol (Perkin Elmer)) and 10 ul of substrate peptide solution (RSRSSYPAGT, dissolved in water at a concentration of 1 mM), Reactions were maintained for 10 min at 30° C. The reactions were quenched with 100 ul of 0.75% Phosphoric acid, then transferred to and filtered through a Phosphocellulose filter plate (Millipore, MSPH-N6B-50). After washing each well 4 times with 0.75% Phosphoric acid, scintillation fluid (20 uL) was added to each well and the residual radioactivity was measured using a Wallac luminescence counter.

[4] = 15 μM ATP, read-out: PIM1: IC50 (15 μM ATP)

T1 sequence (P68400 whole entry): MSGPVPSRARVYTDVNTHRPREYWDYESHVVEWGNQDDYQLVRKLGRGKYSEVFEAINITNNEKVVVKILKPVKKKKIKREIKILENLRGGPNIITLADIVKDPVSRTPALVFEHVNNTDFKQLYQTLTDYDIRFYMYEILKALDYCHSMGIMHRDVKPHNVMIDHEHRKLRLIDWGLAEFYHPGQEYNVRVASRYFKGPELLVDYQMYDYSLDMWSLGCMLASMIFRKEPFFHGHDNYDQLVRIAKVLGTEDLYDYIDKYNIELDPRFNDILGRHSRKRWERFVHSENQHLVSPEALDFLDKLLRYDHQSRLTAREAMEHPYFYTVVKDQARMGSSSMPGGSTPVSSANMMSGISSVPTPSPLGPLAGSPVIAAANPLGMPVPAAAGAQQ
T1 sequence (P67870 whole entry partner): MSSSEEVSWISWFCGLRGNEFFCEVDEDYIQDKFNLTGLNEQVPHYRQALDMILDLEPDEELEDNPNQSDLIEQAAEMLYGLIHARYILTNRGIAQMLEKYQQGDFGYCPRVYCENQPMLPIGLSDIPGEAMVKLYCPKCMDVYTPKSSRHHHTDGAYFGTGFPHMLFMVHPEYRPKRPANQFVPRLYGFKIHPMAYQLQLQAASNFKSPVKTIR
Chain of recombinant PIM-1 (P11309 whole entry): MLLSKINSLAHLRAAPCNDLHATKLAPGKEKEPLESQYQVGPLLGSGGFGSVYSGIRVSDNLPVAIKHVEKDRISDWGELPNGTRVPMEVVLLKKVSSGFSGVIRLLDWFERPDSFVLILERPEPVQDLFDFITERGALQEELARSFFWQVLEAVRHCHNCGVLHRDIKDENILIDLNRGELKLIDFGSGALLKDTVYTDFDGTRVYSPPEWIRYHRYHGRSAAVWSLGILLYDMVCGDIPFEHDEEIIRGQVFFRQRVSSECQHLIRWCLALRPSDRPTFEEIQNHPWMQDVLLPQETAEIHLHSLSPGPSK
Chain of recombinant human PIM2 (Q9P1W9 whole entry): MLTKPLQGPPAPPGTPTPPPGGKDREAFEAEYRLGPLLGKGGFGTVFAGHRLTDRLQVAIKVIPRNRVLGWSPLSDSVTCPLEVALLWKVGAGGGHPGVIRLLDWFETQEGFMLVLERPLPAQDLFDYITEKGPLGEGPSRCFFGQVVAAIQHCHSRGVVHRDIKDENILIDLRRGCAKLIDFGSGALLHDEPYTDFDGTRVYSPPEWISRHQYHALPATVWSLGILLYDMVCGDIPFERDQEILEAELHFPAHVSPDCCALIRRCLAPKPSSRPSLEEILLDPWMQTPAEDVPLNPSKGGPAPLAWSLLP

| SMILES | IC50 (MV-4-11) [µM] | IC50 [1] [µM] | inhibition at 0.5 µM (recombinant PIM-1) [%] | IC50 [2] [µM] | IC50 [3] [µM] | IC50 (recombinant PIM-1; [4]) [µM] | IC50 (recombinant PIM-1; Table 5, read-out: PIM1 IC50) [µM] | IC50 (recombinant human CK2) [µM] | IC50 (recombinant human PIM2) [µM] |
| --- | --- | --- | --- | --- | --- | --- | --- | --- | --- |
| Cc1ccccc1Nc1nc2cc(C(=O)O)ccc2n2cccc12 | > 10 | > 10 | 43.8 | > 10 | > 10 | – | – | – | – |
| CN(C)CCNc1nc2cc(C#N)ccc2n2cccc12 | 2.73 | 5.24 | 20.1 | 1.29 | 8.31 | – | – | – | – |
| FC(F)(F)c1cccc(Nc2nc3cc(-c4nnn[nH]4)ccc3n3cccc23)c1 | 6.58 | > 10 | 45.2 | > 10 | > 10 | – | – | – | – |
| Cc1ccccc1Nc1nc2cc(-c3nnn[nH]3)ccc2n2cccc12 | > 10 | > 10 | 52.4 | > 10 | > 10 | 0.676 | – | – | – |
| CN(c1cccc(Cl)c1)c1nc2cc(-c3nnn[nH]3)ccc2n2cccc12 | > 10 | > 10 | 6.59 | > 10 | > 10 | – | – | – | – |
| Fc1cc(F)cc(Nc2nc3cc(-c4nnn[nH]4)ccc3n3cccc23)c1 | 7.77 | > 10 | 63.8 | > 10 | > 10 | 0.514 | – | – | – |
| CCOC(=O)c1cccc2c1[nH]c(=O)c1cccn12 | – | – | – | – | – | – | > 2.5 | > 5 | > 2.5 |
| O=C(O)c1ccc2c(c1)nc(Nc1cc(F)cc(Cl)c1)c1cccn12 | 8.55 | > 10 | 83.9 | > 10 | > 10 | 0.119 | – | – | – |
| Clc1ccccc1Nc1nc2cc(-c3nnn[nH]3)ccc2n2cccc12 | > 10 | > 10 | 59.3 | > 10 | > 10 | 0.466 | – | – | – |
| O=C(O)c1cccc2c1[nH]c(=O)c1cccn12 | – | – | – | – | – | – | > 2.5 | < 5 | > 2.5 |
| CN(c1ccccc1)c1nc2cc(-c3nnn[nH]3)ccc2n2cccc12 | > 10 | > 10 | 15.3 | > 10 | > 10 | – | – | – | – |
| OCc1cccc2c1nc(Nc1ccccc1F)c1cccn12 | – | – | – | – | – | – | > 2.5 | > 5 | < 5 |
| O=c1[nH]c2c(-c3nnc[nH]3)cccc2n2cccc12 | – | – | – | – | – | – | > 2.5 | < 5 | > 2.5 |
| c1cc(-c2nnc[nH]2)c2nc(Nc3nccs3)c3cccn3c2c1 | – | – | – | – | – | – | < 5 | < 5 | < 5 |
| O=C(O)c1ccc2c(c1)nc(NCCn1cccc1)c1cccn12 | > 10 | > 10 | 50.1 | > 10 | > 10 | 0.554 | – | – | – |
